The results in this text go back to EP4785942A1, “NOVEL COMBINATION THERAPY FOR BLOOD CANCER” (Carna Biosciences, Inc., priority 2023, dated 2025).

Where two headings read alike, the source gives them in different places. Where only a bound is given, the exact number is not on record here.

Format in all cases: cell-based
One assay deals with MOLM-14. In words: Cell growth suppression test in monotherapy (resazurin). To be noted: Homo sapiens, read-out: Cell growth suppression activity IC50. On the procedure:
(§1) A human acute monocytic leukemia cell line (THP-1), a human acute myeloid leukemia cell line (MV-4-11), a human acute monocytic leukemia cell line (MOLM-14), and a human erythroleukemia cell line (TF-1) were cultured in a 5% CO2 incubator using a RPMI1640 medium (Roswell Park Memorial Institute medium, nacalai tesque) comprising 10% Fetal bovine serum (Thermo Scientific, SIGMA-ALDRICH, or Cytiva) and 1% penicillin/streptomycin (nacalai tesque).
(§2) THP-1 cells and MV-4-11 cells at 2×10^4 cells/well, and MOLM-14 cells and TF-1 cells at 5×10^3 cells/well were each seeded to a 96 well plate (cell plate), and thereto was added a test compound diluted with the medium so that the final concentration thereof would be 3 nM to 30 µM (final DMSO concentration: 0.3%). After the resulting mixture was cultured for 72 hours, a resazurin reagent (nacalai tesque) was added thereto. After 3 hours, a fluorescence at an excitation wavelength of 560 nm and a fluorescence wavelength of 590 nm was measured, and each IC50 value of the inhibitory activity was calculated by a criterion in which a well without the compound and without the cells was set to be 100%, and a well without the compound and with cells was set to be 0%.
A general note: Resazurin is reduced to fluorescent resorufin, in cell work by metabolically active cells.

A further assay has as its system MV-4-11. Described as above. To be noted: Homo sapiens, read-out: Cell growth suppression activity IC50. On the procedure: as §1, §2
The test system of a further assay is TF-1. The assay is described as above. To be noted: Homo sapiens, read-out: Cell growth suppression activity IC50. As for the experimental part: as §1, §2
For another assay, the system named is THP-1. Described as above. To be noted: Homo sapiens, read-out: Cell growth suppression activity IC50. As for the experimental part:
as §1, §2

Another assay has as its system THP-1 cells. In words: Dose-response test of DNA methyltransferase inhibitor in the presence of compound (I). To be noted: Homo sapiens, read-out: THP-1 cell growth suppression activity azacitidine IC50 (converted). As for the experimental part:
as §2
Changes in the IC50 value of a DNA methyltransferase inhibitor (azacitidine) in the presence of the compound (I) were investigated.

Setting [1] is: MOLM-14 cells, monotherapy, cultured for 72 hours.
The mark [2] stands for this setting: MV4-11, MV-4-11 cells, monotherapy, cultured for 72 hours.
The mark [3] stands for this setting: TF-1 cells, monotherapy, cultured for 72 hours.
Setting [4] is: THP-1 cells, monotherapy, cultured for 72 hours.

A word on the IC50: it is the point on the concentration scale where inhibition reaches its midpoint. With `Nc1ncn([C@H]2C[C@H](O)[C@@H](CO)O2)c(=O)n1` [Decitabine, decitabine], the IC50 in the assay with MOLM-14 (MOLM-14, 72 h) was 160 nM; with MV-4-11 (MV4-11, 72 h), 540 nM; with TF-1 (TF-1, 72 h), 120 nM; in the assay with THP-1 (THP-1, 72 h), greater than 30000 nM.

Regarding `Nc1ncn([C@@H]2O[C@H](CO)[C@@H](O)[C@H]2O)c(=O)n1` [Azacitidine, azacitidine], the IC50 in the assay on MOLM-14 (setting [1]) is 2850 nM; with MV-4-11 (setting [2]) it was 1200 nM; with TF-1 (setting [3]), 1920 nM; in the assay with THP-1 (setting [4]) it was 7390 nM; in the assay on THP-1 cells (THP-1, Concentration of compound (I) 0 µM (DMSO-added control)) it was 6930 nM; with THP-1 cells (THP-1, Concentration of compound (I) 3 µM), 2030 nM.

In the case of `CCOC(=O)C1=C(NN2CCN(CC(F)(F)F)CC2)O/C(=C\c2c[nH]c3ncccc23)C1=O` [Compound (I), ethyl 5-[(1H-pyrrolo[2,3-b]pyridin-3-yl)methylene]-4-oxo-2-{[4-(2,2,2-trifluoroethyl)piperazinyl]amino}-4,5-dihydrofuran-3-carboxylate], the IC50 with MOLM-14 (setting [1]) was determined as 160 nM; with MV-4-11 (setting [2]), 190 nM; with TF-1 (setting [3]), 340 nM; in the assay with THP-1 (setting [4]) it was 4070 nM.
